Literature values, collected in patent US6696276B2, “Vasopermeability-enhancing conjugates” (priority 1988, dated 2004).

conditions: as little as

| Compound | amount eliciting erythema and wheal formation |
| --- | --- |
| CCCCC/C=C\C\C=C/C=C/C=C/[C@@H](SC[C@H](NC(=O)CC[C@H](N)C(=O)O)C(=O)NCC(=O)O)[C@@H](O)CCCC(=O)O [leukotriene C4] | 1 nmol |
| CCCCC/C=C\C\C=C/C=C/C=C/[C@@H](SC[C@H](N)C(=O)NCC(=O)O)[C@@H](O)CCCC(=O)O [leukotriene D4] | 1 nmol |
| CCCCC/C=C\C\C=C/C=C/C=C/[C@@H](SC[C@H](N)C(=O)O)[C@@H](O)CCCC(=O)O [leukotriene E4] | 1 nmol |
